Experimental data reported in PMC9891171, “Inhibition studies with simple and complex (in)organic anions of the γ-carbonic anhydrase from Mammaliicoccus (Staphylococcus) sciuri, MscCAγ” (Journal of Enzyme Inhibition and Medicinal Chemistry, 2023).

target: T1, MscCAγ (Mammaliicoccus sciuri, UniProt A0AB37HNM1); test: stopped-flow CO2 hydration assay; type: biochemical; settings: read-out: KI (mM)^a / McsCAγ
T1 construct: gene OWO77_11715
T1 sequence (A0AB37HNM1 1-169): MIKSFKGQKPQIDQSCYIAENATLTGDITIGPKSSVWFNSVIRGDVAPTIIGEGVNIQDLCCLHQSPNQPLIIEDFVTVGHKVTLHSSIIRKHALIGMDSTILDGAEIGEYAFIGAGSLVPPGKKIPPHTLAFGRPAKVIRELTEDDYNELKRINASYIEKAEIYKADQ

Q: How did the Ki turn out when `O=S(=O)(O)NS(=O)(=O)O` [iminodisulfonate] was run?
A: 13.7 mM

Q: Which Ki does the source give for `S=C(S)S` [trithiocarbonate] here?
A: 0.07 mM

Q: `[O]=[Re](=[O])(=[O])[OH]` [perrhenate] was tested. Which Ki did it give?
A: 4.4 mM

Q: How did the Ki turn out when `O=P(O)(O)OP(=O)(O)O` [pyrophosphate] was run?
A: 0.8 mM

Q: How did the Ki turn out when `NS(=O)(=O)O` [sulphamic acid] was run?
A: 25.2 mM

Q: `NS(N)(=O)=O` [sulfamide] was tested. Which Ki did it give?
A: 49.2 mM

Q: For `N#C[SeH]` [selenocyanide], which Ki is on record?
A: 32.5 mM

Q: Which Ki does the source give for `CCN(CC)C(=S)S` [N,N-diethyldithiocarbamate] here?
A: 0.5 mM

Q: `OB(O)c1ccccc1` [phenylboronic acid] was tested. Which Ki did it give?
A: 0.9 mM
